How the values were obtained:
[1] = system: TNF-α; assay: Cytometric Bead Array of peritoneal fluid, chronic zymosan peritonitis: TNF-α; type: in vivo, mouse; details: 2 mg/kg, vs Zymosan control
Procedure: (§1) Peritoneal inflammation was induced by Zymosan A (Sigma Chemical) (Masashi et al. Zymosan, but Not Lipopolysaccharide, Triggers Severe and Progressive Peritoneal Injury Accompanied by complement Activation in a Rat Peritonitis Model) was prepared freshly in sterile, 0.9% w/v saline, and 0.5 ml was injected i.p. from day 0 to Day 5. The lymphocyte population in the peripheral blood was determined with a flow cytometer. Cells were phenotyped by flow cytometry with the following primary antibodies: CD4 (FITC) and CD8 (PE). Cells were gated broadly on all live lymphocyte cells, with only debris and multiple cell clusters being excluded. Analysis of mean fluorescence intensity was done and percentage cell population was evaluated. […]
(§2) The Cytometric Bead Array (Mouse Inflammation kit) was used to study cytokines in peritoneal fluid. […] Briefly, a mixture of 6 capture bead populations (50 μl) with distinct fluorescence intensities (detected in FL3) coated with antibodies specific for the above cytokines was mixed with each sample/standard (50 μl). […] Following acquisition of data by two colour cytometric analysis, the sample results were analysed using CBA software (BD Biosciences). […] Individual cytokine concentration ratios were indicated by their fluorescent intensities and was determined by interpolation from the corresponding standard curve.

[2] = system: E. Coli (Gram-negative); assay: Bacterial translocation from the gut into organs: E. coli; type: in vivo; details: Withanone 2 mg/kg; positive/6 mice
Procedure: Peritoneal inflammation was induced by Zymosan A (Sigma Chemical) (Masashi et al. Zymosan, but Not Lipopolysaccharide, Triggers Severe and Progressive Peritoneal Injury Accompanied by complement Activation in a Rat Peritonitis Model) was prepared freshly in sterile, 0.9% w/v saline, and 0.5 ml was injected i.p. from day 0 to Day 5. The lymphocyte population in the peripheral blood was determined with a flow cytometer. Cells were phenotyped by flow cytometry with the following primary antibodies: CD4 (FITC) and CD8 (PE). Cells were gated broadly on all live lymphocyte cells, with only debris and multiple cell clusters being excluded. Analysis of mean fluorescence intensity was done and percentage cell population was evaluated. The test drugs were administered for 30 days after the induction of peritonitis. On 36th day the peritoneal cavity was lavaged with 1.5 ml saline, and after a 30-s gentle manual massage, 0.5 ml exudate was retrieved, centrifuged at 3000 g for 3 min, and frozen at […] prior to cytokine and chemotactic-factor assessment.
Intestine serves as a barrier in preventing gut bacteria and/or endotoxin from spreading to organs and tissues. It is also known that bacterial translocation occurs in critically ill or immunocompromised patients, and the physical disruption of mucosal barrier in vivo rodent models seem to be a key factor Tor translocation (Deitch et al. Effect of hemorrhagic shock on bacterial translocation, intestinal morphology, and intestinal permeability in conventional and antibiotic-decontaminated rats; Critical Care Medicine; 1990 18(5)). Bacterial translocation from the gut into the peritoneal cavity and organs was analyzed. The mesenteric lymph nodes, liver, and spleen of mice, study group of 30, were removed using sterile instruments. The organs were then homogenized in 1 ml of sterile cooked meat broth and 50 μl of organ homogenate was spread on blood agar plates to detect aerobic bacteria and Eosin Methylene blue agar plates to detect specially for E. coli. These plates were then incubated at 37° C. for 2 days. […]

[3] = system: IL-1β; assay: Intracellular IL-1β estimation in LPS activated murine neutrophils (flow cytometry); type: cell-based; details: 5 μg/ml, LPS 1 μg/ml, 3 h, ↑ upregulation
Procedure: Flowcytometric studies were carried out to determine the anti-inflammatory effect of active constituents of Withania somnifera extract on TNF-α and IL-1β cytokine expression in LPS activated murine neutrophils.
TNF-α and Interleukin 1 beta (IL-1β) cytokines play a major role in the pathogenesis of septic shock induced by LPS (Lipopolysaccharide) endotoxin injection. LPS is an important triggering factor for in vivo systemic inflammatory response. LPS activates neutrophils via engagement of TLR4 (Toll-like receptor 4), resulting in the induction of a characteristic proinflammatory phenotype and prolongation of cell lifespan. In brief, neutrophils extraction was performed by taking murine blood and centrifuging it at 250 g for 20 min. Middle layer was taken and layered with histopaque and incubated for 10 min. The samples were centrifuged at 700 g, the upper layer was taken and Facs Lysing solution added for the lysis of any traces of RBC. The samples were washed with PBS (200 g) for 10 min. Neutrophils were stimulated with. LPS (1 μg/ml) and incubated with test samples for 3 h, in CO2 incubator. […] A fluorescence trigger was set on the […] parameter of the gated neutrophil populations (10,000 events). Fluorescence compensation, data analysis, and data presentation was performed using Cell Quest Pro software (Beckton—Dickinson Biosciences, CA, USA). […]

[4] = system: IL-10; assay: Cytometric Bead Array of peritoneal fluid, chronic zymosan peritonitis: IL-10; type: in vivo, mouse; details: 2 mg/kg, vs Zymosan control
Procedure: as §1, §2

[5] = system: TNF-α; assay: Extracellular in vivo TNF-α estimation in serum from treated mice after LPS injection (ELISA); details: 1 mg/kg p.o for 6 days, serum 90 mins after LPS injection, ↑ upregulation
Procedure: BALM male mice aged 6-8 weeks were maintained at 22±2° C. under 12/12 h light dark cycle. Mice received oral treatment of test drugs at graded doses (w/v) for 6 days, followed by intravenous injection of 1 mg/kg (Brieva et al. Immunoferon, a glycoconjugate of natural origin, inhibits LPS-induced TNF-α production and inflammatory responses. International Immunopharmacology (2001) 1, 1979-1987). Six mice were employed in each group and experiments were performed in triplicates. Blood was collected from retro-orbital plexus of the experimental animals and serum was separated. TNF-α, IL-1β production was evaluated by a commercial ELISA kit in serum from treated mice, 90 mins after LPS injection.

## CC1=C(C)C(=O)O[C@@H]([C@@H](C)[C@@]2(O)CC[C@H]3[C@@H]4[C@@H]5O[C@@H]5[C@@]5(O)CC=CC(=O)[C@]5(C)[C@H]4CC[C@@]32C)C1 [Withanone]
[1]
  Inhibition of TNF-α: 58%
[2]
  Bacterial translocation, Liver, E. coli: 1/6
  Bacterial translocation, Mesenteric Lymph Nodes, E. coli: 2/6
  Bacterial translocation, Spleen, E. coli: 1/6
[3]
  Percentage IL-1β inhibition compared to LPS control: 32%
[4]
  Inhibition of IL-10: 52%
[5]
  Percentage TNF-α inhibition compared to LPS control: 37.05%
